Assay results from patent US12558428B2, “Heterobifunctional compounds and their use in treating disease” (Halda Therapeutics OpCo, Inc., priority 2024, dated 2026).
Read-outs that look alike come from different tables or passages of the source.

Tests used:
Type in all cases: cell-based
[1] = system: T-Rex 293 cells having increased expression of estrogen receptor alpha protein; experiment: Cellular growth inhibition assay, T-Rex 293 cells, (+) doxycycline; details: T-REx-293, 72 h
Experimental: (§1) Exemplary compounds were tested for the ability to inhibit the proliferation of the following types of cells: (i) a T-Rex 293 cell line having increased expression of estrogen receptor alpha protein from exposure to doxycycline and (ii) a T-Rex 293 cell line lacking increased expression of estrogen receptor alpha protein.
(§2) The following types of cells were prepared for this experiment: (i) a T-Rex 293 cell line having increased expression of estrogen receptor alpha protein from exposure to doxycycline and (ii) a T-Rex 293 cell line lacking increased expression of estrogen receptor alpha protein. The ability of the test compounds to inhibit proliferation of the foregoing cell types was evaluated according to the procedures set forth below.
(§3) The doxycycline-inducible estrogen receptor alpha protein expressing cell line was established using the following protocol: T-Rex 293 cells were purchased from Invitrogen (Cat #R71007) and transfected using Lipofectamine 2000 with the wild-type estrogen receptor alpha protein sequence cloned into the pcDNA4/TO vector. Transfected cells were selected using 400 μg/mL Zeocin (Invitrogen Cat #R25001). Following selection, single clones were raised and maintained in Dulbecco's Modified Eagle Medium (DMEM) supplemented with 10% w/w Tetracycline-free fetal bovine serum (FBS) and 250 μg/mL Zeocin. Clones were analyzed for expression of estrogen receptor alpha protein in the presence and absence of 3 ng/mL doxycycline (Sigma Cat #D9891), and a single doxycycline-inducible clone (hereinafter “SC”) was selected for use in downstream assays.
(§4) The SC cells were seeded on poly-D-lysine coated, black clear-bottom 384-well plates at 2500/well, in 25 μL Phenol Red Free Dulbecco's Modified Eagle Medium (DMEM) supplemented with 10% w/w charcoal-dextran treated fetal bovine serum (FBS) and 1% w/w pen-strep, with or without 3 ng/mL doxycycline. Pen-Strep is a commercially available mixture of penicillin G and streptomycin, which is used in mammalian cell culture media to prevent bacterial contamination. Phenol Red Free Dulbecco's Modified Eagle Medium (DMEM) supplemented with 10% w/w charcoal-dextran treated fetal bovine serum (FBS) and 1% w/w pen-strep, with or without 3 ng/mL doxycycline is herein referred to as Treatment Medium. Following seeding of cells in the plates, the plates were spun at 300×g for 30 seconds, then equilibrated to room temperature for 30 minutes, and then deposited in a humidified tissue culture incubator maintained at 37° C. with 5% CO2.
(§5) At 24 hours after seeding of the cells, dilutions of test compound were prepared in DMSO and dissolved in Treatment Medium, to achieve a final DMSO concentration of 0.5% w/w, thereby providing the Test Compound Solution. A 25 μL aliquot of the Test Compound Solution was added to cells in the well plates. An equal volume of a solution containing DMSO and Treatment Medium was used as a negative control. Following treatment of cells with Test Compound Solution or said equal volume of a solution containing DMSO and Treatment Medium, the plates were spun at 300×g for 30 seconds, and then left in an incubator for 72 hours.
(§6) At the end of the treatment duration, cell viability was quantified with CellTiter-Glo 2.0 reagent (Promega Cat #G9243). For this purpose, plates were equilibrated to room temperature for 30 minutes, and then 25 μL of CellTiter-Glo 2.0 reagent was added to cells in the plate wells. Plates were then agitated on a shaker for two minutes at 500 rpm and subsequently incubated at room temperature for 10 minutes. Following incubation, the plates were spun at 3000×g for 30 seconds, then sealed with an optical adhesive cover, and luminescence readings were measured with an EnVision Plate Reader (Perkin Elmer).
(§7) Data was normalized using zero luminescence for baseline. […]

[2] = system: T-Rex 293 cells lacking increased expression of estrogen receptor alpha protein; experiment: Cellular growth inhibition assay, T-Rex 293 cells, (−) doxycycline; details: T-REx-293, 72 h
Experimental: as §1, §2, §3, §4, §5, §6, §7

[3] = system: MCF7 cells (ATCC #HTB-22); experiment: Cellular growth inhibition assay, MCF7 cells purchased from ATCC; details: Homo sapiens, MCF7, 144 h
Experimental: Exemplary compounds were tested for the ability to inhibit the proliferation of MCF7 cells.
MCF7 cells (ATCC #HTB-22 or ECACC #86012803) were cultured in RPMI 1640 medium supplemented with 10% heat-inactivated fetal bovine serum, 1% pen-strep, and 0.2 U/ml insulin. Cells were seeded in 25 μL of RPMI 1640 medium supplemented with 10% heat-inactivated fetal bovine serum, 1% pen-strep, 0.2 U/ml insulin in poly-D-lysine treated, black clear-bottom 384-well plates at 225 cells/well for MCF7 cells purchased from ECACC or 1,500 cells/well for MCF7 cells purchased from ATCC. Following seeding, plates were spun at 300×g for 30 seconds and cultured at 37° C. with 5% CO2 in a humidified tissue culture incubator.
At 24 hours after seeding, compounds were titrated in 100% DMSO and diluted in RPMI 1640 medium supplemented with 10% heat-inactivate fetal bovine serum, 1% pen-strep, and 0.2 U/ml insulin. A 25 μL aliquot of the compound/media mixture was added to cells, bringing the total volume in each well to 50 μL. An equal volume of DMSO without compound was used as a negative control. After treatment, plates were spun at 300×g for 30 seconds, then cultured at 37° C. with 5% CO2 for six days in a humidified tissue culture incubator.
On Day 6 of treatment, cell viability was quantified with CellTiter-Glo 2.0 reagent (Promega). Plates were equilibrated to room temperature for 30 minutes, then 25 μL of CellTiter-Glo 2.0 reagent was added to cells, bringing the total volume in each well to 75 μL. After reagent was added, plates were mixed on a shaker for two minutes at 500 rpm and then incubated at room temperature for 10 minutes. Following incubation, plates were spun at 3,000×g for 30 seconds, sealed with an optical adhesive cover, and luminescence readings were measured with an EnVision Plate Reader.
Data was normalized to 0 luminescence for baseline. A four-parameter, non-linear regression curve fit was applied to dose-response data in GraphPad Prism data analysis software to determine the half maximal growth inhibitory concentration (GI50) for each compound.

[4] = Table 7-A, T-Rex 293 cells with doxycycline (increased ERα expression), 72 hours, CellTiter-Glo, read-out: (+) Dox GI50
[5] = Table 7-A, T-Rex 293 cells without doxycycline (lacking increased ERα expression), 72 hours, CellTiter-Glo, read-out: (−) Dox GI50
[6] = Table 8-A, MCF7 cells purchased from ATCC, six days, CellTiter-Glo, read-out: GI50
[7] = T-Rex 293 cells with doxycycline-induced ERα expression, 72 hours, CellTiter-Glo 2.0, read-out: (+) Dox TRex ERa (GI50)
[8] = T-Rex 293 cells without doxycycline, 72 hours, CellTiter-Glo 2.0, read-out: (−) Dox TRex ERa (GI50)
[9] = read-out: (+) Dox TRex ERa (GI50)
[10] = read-out: (−) Dox TRex ERa (GI50)

SMILES | GI50 [1, 4] [nM] | GI50 [2, 5] [nM] | GI50 [3, 6] [nM] | GI50 [1, 7] [nM] | GI50 [2, 8] [nM] | GI50 [1, 9] [nM] | GI50 [2, 10] [nM] | GI50 [3] [nM]
COc1cc(N2CCN(CC3(O)CCN(c4ccc(C5=N[C@@H](C)c6nnc(C)n6-c6sc(C)c(C)c65)c(F)c4)CC3)CC2)ccc1[C@H]1c2ccc(O)cc2CC[C@H]1c1cccc(F)c1 (single isomer, unassigned) [III-343] | 50 to 500 | 50 to 500 | < 50 |  |  |  |  | 
COc1cc(N2CCN(CC3(O)CCN(c4ccc(C5=N[C@@H](C)c6nnc(C)n6-c6sc(C)c(C)c65)c(F)c4)CC3)CC2)ccc1[C@@H]1c2ccc(O)cc2CC[C@@H]1c1cccc(F)c1 (single isomer, unassigned) [III-344] | < 50 | 500 to 2500 | < 50 |  |  |  |  | 
CCN(CCCCNC(=O)C[C@@H]1N=C(c2ccc(Cl)cc2)c2c(sc(C)c2C)-n2c(C)nnc21)CCOc1ccc(C(=O)c2c(-c3ccc(O)cc3)sc3cc(O)ccc23)cc1 [I-1, (S)-2-(4-(4-chlorophenyl)-2,3,9-trimethyl-6H-thieno[3,2-f][1,2,4]triazolo[4,3-a][1,4]diazepin-6-yl)-N-(4-(ethyl(2-(4-(6-hydroxy-2-(4-hydroxyphenyl)benzo[b]thiophene-3-carbonyl)phenoxy)ethyl)amino)butyl) acetamide] |  |  | 50 to 500 | 50 to 500 | 50 to 500 |  |  | 
CCN(CCOCCOCCOCCOCCNC(=O)C[C@@H]1N=C(c2ccc(Cl)cc2)c2c(sc(C)c2C)-n2c(C)nnc21)CCOc1ccc(C(=O)c2c(-c3ccc(O)cc3)sc3cc(O)ccc23)cc1 [I-4, (S)-2-(4-(4-chlorophenyl)-2,3,9-trimethyl-6H-thieno[3,2-f][1,2,4]triazolo[4,3-a][1,4]diazepin-6-yl)-N-(3-ethyl-1-(4-(6-hydroxy-2-(4-hydroxyphenyl)benzo[b]thiophene-3-carbonyl)phenoxy)-6,9,12,15-tetraoxa-3-azaheptadecan-17-yl) acetamide] |  |  | 50 to 500 | < 50 | 500 to 2500 |  |  | 
CCN(CCOCCOCCOCCOCCOCCOCCNC(=O)C[C@@H]1N=C(c2ccc(Cl)cc2)c2c(sc(C)c2C)-n2c(C)nnc21)CCOc1ccc(C(=O)c2c(-c3ccc(O)cc3)sc3cc(O)ccc23)cc1 [I-5, (S)-2-(4-(4-chlorophenyl)-2,3,9-trimethyl-6H-thieno[3,2-f][1,2,4]triazolo[4,3-a][1,4]diazepin-6-yl)-N-(3-ethyl-1-(4-(6-hydroxy-2-(4-hydroxyphenyl)benzo[b]thiophene-3-carbonyl)phenoxy)-6,9,12,15,18,21-hexaoxa-3-azatricosan-23-yl) acetamide] |  |  | 50 to 500 | < 50 | 500 to 2500 |  |  | 
Cc1sc2c(c1C)C(c1ccc(N3CCN(c4ccc([C@@H]5c6ccc7n[nH]cc7c6C[C@@H](C)N5CC(F)(F)F)nc4)CC3)cc1)=N[C@@H](C)c1nnc(C)n1-2 [I-7, (S)-2,3,6,9-tetramethyl-4-(4-(4-(6-((6S,8R)-8-methyl-7-(2,2,2-trifluoroethyl)-6,7,8,9-tetrahydro-2H-pyrazolo[4,3-f]isoquinolin-6-yl)pyridin-3-yl)piperazin-1-yl)phenyl)-6H-thieno[3,2-f][1,2,4]triazolo[4,3-a][1,4]diazepine] |  |  |  |  |  | 50 to 500 | 50 to 500 | 50 to 500
CCN(Cc1ccc(C2CN(CC3(O)CCN(c4ccc(C5=N[C@@H](C)c6nnc(C)n6-c6sc(C)c(C)c65)cc4)CC3)C2)cc1)c1cc(OC)ccc1C1CCc2cc(O)ccc2C1 (stereo partly drawn) [I-8, 4-((3-(4-((ethyl(2-(6-hydroxy-1,2,3,4-tetrahydronaphthalen-2-yl)-5-methoxyphenyl)amino)methyl)phenyl)azetidin-1-yl)methyl)-1-(4-((S)-2,3,6,9-tetramethyl-6H-thieno[3,2-f][1,2,4]triazolo[4,3-a][1,4]diazepin-4-yl)phenyl)piperidin-4-ol] |  |  |  |  |  | 50 to 500 | 50 to 500 | < 50
Cc1sc2c(c1C)C(c1ccc(OCCCCC3CCN(CCOc4ccc(C(=O)c5c(-c6ccc(O)cc6)sc6cc(O)ccc56)cc4)CC3)cc1)=N[C@@H](Cc1ncco1)c1nnc(C)n1-2 [I-9, (S)-(6-hydroxy-2-(4-hydroxyphenyl)benzo[b]thiophen-3-yl)(4-(2-(4-(4-(4-(2,3,9-trimethyl-6-(oxazol-2-ylmethyl)-6H-thieno[3,2-f][1,2,4]triazolo[4,3-a][1,4]diazepin-4-yl)phenoxy)butyl)piperidin-1-yl)ethoxy)phenyl)methanone] |  |  | < 50 | < 50 | 50 to 500 |  |  | 
Cc1sc2c(c1C)C(c1ccc(OC3CC4(CCN(CCOc5ccc(C(=O)c6c(-c7ccc(O)cc7)sc7cc(O)ccc67)cc5)CC4)C3)cc1)=N[C@@H](Cc1ncco1)c1nnc(C)n1-2 [I-10, (S)-(6-hydroxy-2-(4-hydroxyphenyl)benzo[b]thiophen-3-yl)(4-(2-(2-(4-(2,3,9-trimethyl-6-(oxazol-2-ylmethyl)-6H-thieno[3,2-f][1,2,4]triazolo[4,3-a][1,4]diazepin-4-yl)phenoxy)-7-azaspiro[3.5]nonan-7-yl)ethoxy)phenyl)methanone] |  |  | < 50 | < 50 | < 50 |  |  | 
Cn1cc(-c2cc(C(C)(C)O)ccc2Oc2ccc(N3CC(CC4CCN(CCOc5ccc(C(=O)c6c(-c7ccc(O)cc7)sc7cc(O)ccc67)cc5)CC4)C3)cc2)c2cc[nH]c2c1=O [I-11, 4-(2-(4-(3-((1-(2-(4-(6-hydroxy-2-(4-hydroxyphenyl)benzo[b]thiophene-3-carbonyl)phenoxy)ethyl)piperidin-4-yl)methyl)azetidin-1-yl)phenoxy)-5-(2-hydroxypropan-2-yl)phenyl)-6-methyl-1,6-dihydro-7H-pyrrolo[2,3-c]pyridin-7-one] |  |  | < 50 | < 50 | < 50 |  |  | 
